Results from ChEMBL document CHEMBL5543096 (J Med Chem, 2024).
Activity calls are given as the source filed them. No cut-off for these calls is given here.

Key:
[1] = system: Mus musculus; assay: Antidepressant activity in Reserpine-induced depressive C57BL/6J mouse model assessed as decrease in immobility time at 0.3 mg/kg,ip administration measured after 30 mins by tail suspension test; format: functional, organism-based
[2] = system: Mus musculus; assay: Antidepressant activity in Reserpine-induced depressive C57BL/6J mouse model assessed as decrease in immobility time at 0.3 mg/kg,ip administration measured after 7 days by tail suspension test; format: functional, organism-based; settings: time 7.0 day
[3] = system: Mus musculus; assay: Antidepressant activity in Reserpine-induced depressive C57BL/6J mouse model assessed as decrease in immobility time at 0.3 mg/kg,ip administration measured for 1 to 3 days by tail suspension test; format: functional, organism-based; settings: time 1-3 day
[4] = system: Mus musculus; assay: Antidepressant activity in Reserpine-induced depressive C57BL/6J mouse model assessed as decrease in immobility time at 0.3 mg/kg,ip administration measured after 5 days by tail suspension test; format: functional, organism-based; settings: time 5.0 day
[5] = Toxicity in chronic restraint stress-induced depressive C57BL/6J mouse model assessed as decrease in percentage of spontaneous alternation at 1 mg/kg,ip administration by Y-maze test; format: organism-based; settings: in vivo
[6] = Toxicity in chronic restraint stress-induced depressive C57BL/6J mouse model assessed as decrease in percentage of spontaneous alternation at 2 mg/kg,ip administration by Y-maze test; format: organism-based; settings: in vivo
[7] = system: Mus musculus; assay: Antidepressant activity in chronic restraint stress-induced depressive C57BL/6J mouse model assessed as increase in hippocampal BDNF mRNA expression at 0.3 mg/kg,ip administration measured after 8 hrs by qRT-PCR analysis; format: functional, organism-based
[8] = system: Mus musculus; assay: Antidepressant activity in Reserpine-induced depressive C57BL/6J mouse model assessed as decrease in immobility time at 0.1 to 0.3 mg/kg,ip administration measured after 30 mins by tail suspension test; format: functional, organism-based; settings: dose 0.1-0.3 mg/kg
[9] = system: Mus musculus; assay: Antidepressant activity in Reserpine-induced depressive C57BL/6J mouse model assessed as decrease in immobility time at 0.1 to 1 mg/kg,ip administration measured after 7 days by tail suspension test; format: functional, organism-based; settings: dose 0.1-1 mg/kg, time 7.0 day

SMILES | Activity [1] | Activity [2] | also measured
CN1[C@@H]2C[C@@H](OC(=O)C(F)(CCl)Cc3ccccc3)C[C@H]1[C@@H]1O[C@@H]12 (some centres not stated) | inactive | inactive | –
CN1[C@@H]2C[C@@H](OC(=O)C(F)c3ccccc3)C[C@H]1[C@@H]1O[C@@H]12 (some centres not stated) | inactive | inactive | –
CN1[C@@H]2C[C@@H](OC(=O)C(F)(CO)CCc3ccccc3)C[C@H]1[C@@H]1O[C@@H]12 (some centres not stated) | inactive | inactive | –
C=CCC(F)(CO)C(=O)O[C@@H]1C[C@@H]2[C@H]3O[C@H]3[C@H](C1)N2C (some centres not stated) | inactive | inactive | –
CN1[C@@H]2C[C@@H](OC(=O)C(F)(CO)Cc3ccccc3)C[C@H]1[C@@H]1O[C@@H]12 (some centres not stated) | Active | inactive | –
CN1[C@@H]2C[C@@H](OC(=O)C(F)(CO)CCCc3ccccc3)C[C@H]1[C@@H]1O[C@@H]12 (some centres not stated) | inactive | inactive | –
C=CCC(F)(CCl)C(=O)O[C@@H]1C[C@@H]2[C@H]3O[C@H]3[C@H](C1)N2C (some centres not stated) | inactive | inactive | –
CN1[C@@H]2C[C@@H](OC(=O)C(F)(CBr)c3ccccc3)C[C@H]1[C@@H]1O[C@@H]12 (some centres not stated) | inactive | inactive | –
CN1[C@@H]2C[C@@H](OC(=O)C(F)(CCl)c3ccccc3)C[C@H]1[C@@H]1O[C@@H]12 (some centres not stated) | inactive | inactive | –
CN1[C@@H]2C[C@@H](OC(=O)C(F)(CO)c3cccc(F)c3)C[C@H]1[C@@H]1O[C@@H]12 (some centres not stated) | Active | inactive | –
CN1[C@@H]2C[C@@H](OC(=O)C(F)(CO)c3ccccc3)C[C@H]1[C@@H]1O[C@@H]12 (some centres not stated) | Active | Active | –
CN1[C@@H]2C[C@@H](OC(=O)C(F)(CI)c3ccccc3)C[C@H]1[C@@H]1O[C@@H]12 (some centres not stated) | inactive | inactive | –
CN1[C@@H]2C[C@@H](OC(=O)[C@H](CO)c3ccccc3)C[C@H]1[C@@H]1O[C@@H]12 [SCOPOLAMINE] | Active | inactive | Activity [3]: Active; Activity [4]: inactive; Activity [5]: Toxic; Activity [6]: Toxic; Activity [7]: Active
CN1[C@@H]2C[C@@H](OC(=O)C(F)(CO)c3ccc(F)cc3)C[C@H]1[C@@H]1O[C@@H]12 (some centres not stated) | – | inactive | –
Cc1ccc(S(=O)(=O)OCC(F)(C(=O)O[C@@H]2C[C@@H]3[C@H]4O[C@H]4[C@H](C2)N3C)c2ccccc2)cc1 (some centres not stated) | inactive | inactive | –
CN1[C@@H]2C[C@@H](OC(=O)C(F)(CO)Cc3ccccc3Br)C[C@H]1[C@@H]1O[C@@H]12 (some centres not stated) | – | inactive | –
CCCCC(F)(CCl)C(=O)O[C@@H]1C[C@@H]2[C@H]3O[C@H]3[C@H](C1)N2C (some centres not stated) | inactive | inactive | –
CN1[C@@H]2C[C@@H](OC(=O)C(F)(CO)Cc3cccc4ccccc34)C[C@H]1[C@@H]1O[C@@H]12 (some centres not stated) | – | inactive | –
CN1[C@@H]2C[C@@H](OC(=O)C(F)(CO)Cc3ccc(C(F)(F)F)cc3)C[C@H]1[C@@H]1O[C@@H]12 (some centres not stated) | – | inactive | –
CN1[C@@H]2CC[C@H]1C[C@@H](OC(=O)C(F)(CO)c1ccccc1)C2 (some centres not stated) | inactive | inactive | –
CN1[C@@H]2C[C@@H](OC(=O)C(F)(CO)Cc3ccccc3F)C[C@H]1[C@@H]1O[C@@H]12 (some centres not stated) | – | inactive | –
CN1[C@@H]2C[C@@H](OC(=O)C(F)(CBr)Cc3ccccc3)C[C@H]1[C@@H]1O[C@@H]12 (some centres not stated) | inactive | inactive | –
CN1[C@@H]2C[C@@H](OC(=O)C(F)(CN=[N+]=[N-])Cc3ccccc3)C[C@H]1[C@@H]1O[C@@H]12 (some centres not stated) | inactive | inactive | –
CN1[C@@H]2C[C@@H](OC(=O)[C@](F)(CO)c3ccccc3)C[C@H]1[C@@H]1O[C@@H]12 | – | – | Activity [8]: Active; Activity [9]: inactive
Cc1ccc(S(=O)(=O)OCC(F)(Cc2ccccc2)C(=O)O[C@@H]2C[C@@H]3[C@H]4O[C@H]4[C@H](C2)N3C)cc1 (some centres not stated) | inactive | inactive | –
CCCCC(F)(CO)C(=O)O[C@@H]1C[C@@H]2[C@H]3O[C@H]3[C@H](C1)N2C (some centres not stated) | inactive | inactive | –
